We go through two compounds from paper PMC9927457 (Microbiology Spectrum, 2023).

For orientation: IC50 means the concentration needed to halve the response being measured. In general, fraction unbound refers to free concentration divided by total concentration. Higher therefore signals much free substance. What is called half-life is the time in which the quantity being followed falls by half. A high value points to slow decline. As usually defined, the microsomal CLint is a measure of how fast metabolising enzymes remove a compound, apart from limits set by blood flow. Lower therefore signals greater metabolic stability. What is called amount remaining is the share of the starting amount still present when the sample was taken. A lower amount remaining goes with more turnover.

Data set [1] addresses CYP2D6 (Homo sapiens, UniProt P10635). The data set is described as follows: biochemical. On the procedure: (§1) Table S4. Inhibition of cytochrome P450s.
(§2) Compounds were tested for inhibition of P450s using the enzyme substrate pairs and conditions noted. IC50s (µM) were calculated. Control P450 inhibitors were included for each isoform. […]
(§3) 1200 HPLC and a CTC PAL chilled autosampler, all controlled by MassHunter software (Agilent).
(§4) After separation on a C18 reverse phase HPLC column (Agilent Zorbax StableBond 3.5µm, 2.1 x 30 mm) using an acetonitrile -water gradient system, peaks were analyzed by mass spectrometry (MS) using ESI ionization in MRM mode.
(§5) Serial dilutions of a 10 mM stock solution were prepared in acetonitrile:DMSO (9:1). The final DMSO concentration was < 0.2%. Compounds were incubated with human liver microsomes in the presence of 2 mM NADPH in 100 mM potassium phosphate (pH 7.4) containing 5 mM magnesium chloride and a probe substrate, in a 200 µl assay final volume in duplicate. The probe substrate concentrations including bupropion (CYP2B6), amodiaquine (CYP2C8), tolbutamide (CYP2C9), mephenytoin (CYP2C19), dextromethorphan (CYP2D6) and midazolam/testosterone […]
(§6) After incubation at 37 °C, reactions were terminated by addition of methanol containing internal standard (propranolol) for analytical quantification. The quenched samples were kept on ice for 10 min and centrifuged at 4 °C for 10 min. The supernatant was removed and the probe substrate metabolite was analyzed by LC-MS/MS (Agilent Technologies Triple Quad LC/MS). A decrease in the formation of the metabolite compared to vehicle control

Data set [2] in a line: Plasma protein binding (Rapid Equilibrium Dialysis). In kind it is in vitro ADME, human. As to conditions: human; for fraction unbound at 4 h, 5 µM: plasma. On the procedure:
Molecule fraction fraction Post-Assay
Table S5. Plasma protein binding
Protein binding was measured in human plasma using Rapid Equilibrium Dialysis (RED) devices (Pierce) according to the manufacturers’ instructions; 5 µM compounds in plasma were dialysed against PBS for 4 h at 37C. Compounds were detected by LC-MS/MS in plasma and PBS
(In general: Equilibrium dialysis compares concentrations on both sides of a semipermeable membrane.)

The target of data set [3] is T1, CYP2B6 (Homo sapiens, UniProt P20813).
T1 sequence (P20813 1-491): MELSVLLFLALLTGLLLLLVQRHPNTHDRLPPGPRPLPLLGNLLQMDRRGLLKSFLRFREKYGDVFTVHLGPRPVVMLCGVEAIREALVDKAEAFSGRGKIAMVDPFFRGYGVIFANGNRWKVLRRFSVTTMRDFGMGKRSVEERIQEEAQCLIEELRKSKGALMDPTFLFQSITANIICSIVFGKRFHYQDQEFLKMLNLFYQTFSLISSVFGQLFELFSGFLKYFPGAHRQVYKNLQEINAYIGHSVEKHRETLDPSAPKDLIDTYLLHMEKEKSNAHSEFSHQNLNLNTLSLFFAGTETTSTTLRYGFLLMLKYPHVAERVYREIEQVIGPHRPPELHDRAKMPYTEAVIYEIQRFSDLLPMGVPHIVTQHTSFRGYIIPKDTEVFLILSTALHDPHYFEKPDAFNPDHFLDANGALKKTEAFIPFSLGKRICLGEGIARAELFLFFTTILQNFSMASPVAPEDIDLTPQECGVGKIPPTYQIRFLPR
The data set is described as follows: Cytochrome P450 inhibition. On the procedure: as §1
(§7) Compounds were tested for inhibition of P450s using the enzyme substrate pairs and conditions noted. IC50s (µM) were calculated. Control P450 inhibitors were included for each isoform.
(§8) For each compound, the analytical method was developed as follows. Analyte signal was optimized for each compound by ESI positive or negative ionization mode. An MS2 scan or an SIM scan was used to optimize fragmenter voltage and a product ion analysis was used to identify the best fragment for analysis. The collision energy was optimized using a product ion or MRM scan. An ionization ranking was assigned indicating the compound’s ease of ionization. Samples […]
as §3, §4
(§9) (1 picture or pasted object on this page, not shown here)
as §5, §6

A short description of data set [4]: Microsomal metabolic stability. As to conditions: human; for half-life at 1 µM: liver microsomes.
Data set [5] has as its target CYP2C19 (Homo sapiens, UniProt P33261). Description: biochemical. On the procedure: as §1, §7, §8, §3, §4, §9, §5, §6
Data set [6] concerns the target T2, CYP2C8 (Homo sapiens, UniProt P10632).
T2 sequence (P10632 1-490): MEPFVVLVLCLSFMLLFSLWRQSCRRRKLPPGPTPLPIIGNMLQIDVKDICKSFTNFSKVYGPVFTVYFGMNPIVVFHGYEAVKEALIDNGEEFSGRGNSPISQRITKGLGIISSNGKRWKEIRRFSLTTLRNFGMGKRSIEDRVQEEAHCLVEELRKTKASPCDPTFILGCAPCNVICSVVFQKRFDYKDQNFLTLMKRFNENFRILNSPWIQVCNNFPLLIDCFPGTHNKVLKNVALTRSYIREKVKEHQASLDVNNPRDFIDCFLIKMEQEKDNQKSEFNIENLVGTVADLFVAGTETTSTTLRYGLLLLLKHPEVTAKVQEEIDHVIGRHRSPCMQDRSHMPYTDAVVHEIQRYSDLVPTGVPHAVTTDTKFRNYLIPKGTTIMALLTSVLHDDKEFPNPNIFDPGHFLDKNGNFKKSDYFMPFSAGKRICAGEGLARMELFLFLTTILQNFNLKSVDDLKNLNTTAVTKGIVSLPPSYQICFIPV
Description: biochemical. On the procedure:
as §1, §7, §8, §3, §4, §9, §5, §6

The test system of data set [7] is RAW 264.7 macrophages. Description: Cytotoxicity against infected macrophages. The data set is classed as cell-based, murine. As to conditions: Mus musculus; infected RAW264:7 cells, 72 h; read-out: IC50 Macrophage.
Data set [8] has as its target CYP2C9 (Homo sapiens, UniProt P11712). The data set is described as follows: biochemical. On the procedure:
as §1, §2, §5, §6

The mark [9] stands for this setting: Mean plasma fraction Unbound Fuplasma.

Sequence of CYP2C19 (P33261 whole entry): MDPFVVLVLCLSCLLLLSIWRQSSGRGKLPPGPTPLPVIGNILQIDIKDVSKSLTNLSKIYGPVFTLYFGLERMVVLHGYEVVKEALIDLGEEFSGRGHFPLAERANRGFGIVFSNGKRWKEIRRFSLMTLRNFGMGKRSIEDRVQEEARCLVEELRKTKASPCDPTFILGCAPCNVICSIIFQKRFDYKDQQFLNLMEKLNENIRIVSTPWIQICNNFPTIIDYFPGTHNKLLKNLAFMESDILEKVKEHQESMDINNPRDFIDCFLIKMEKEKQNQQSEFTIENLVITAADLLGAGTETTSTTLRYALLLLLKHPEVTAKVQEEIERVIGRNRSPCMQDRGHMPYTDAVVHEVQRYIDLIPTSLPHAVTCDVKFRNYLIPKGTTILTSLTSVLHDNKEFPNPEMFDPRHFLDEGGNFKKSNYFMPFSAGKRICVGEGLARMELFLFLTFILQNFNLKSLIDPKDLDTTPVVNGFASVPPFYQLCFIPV
Sequence of CYP2D6 (P10635 whole entry, canonical isoform): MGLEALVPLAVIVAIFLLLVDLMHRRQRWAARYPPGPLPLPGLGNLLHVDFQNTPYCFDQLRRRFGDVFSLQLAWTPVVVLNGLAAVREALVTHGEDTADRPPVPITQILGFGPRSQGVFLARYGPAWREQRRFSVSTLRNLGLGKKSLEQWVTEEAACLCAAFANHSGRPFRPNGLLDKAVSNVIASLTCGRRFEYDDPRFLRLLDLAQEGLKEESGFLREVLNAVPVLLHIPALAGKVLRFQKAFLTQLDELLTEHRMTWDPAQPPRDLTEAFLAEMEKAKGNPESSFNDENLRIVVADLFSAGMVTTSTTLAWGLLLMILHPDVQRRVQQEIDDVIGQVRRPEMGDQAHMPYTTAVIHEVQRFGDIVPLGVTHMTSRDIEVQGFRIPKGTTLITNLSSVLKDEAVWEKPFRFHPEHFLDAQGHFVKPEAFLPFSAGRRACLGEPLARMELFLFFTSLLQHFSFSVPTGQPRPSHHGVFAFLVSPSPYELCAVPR
Sequence of CYP2C9 (P11712 whole entry): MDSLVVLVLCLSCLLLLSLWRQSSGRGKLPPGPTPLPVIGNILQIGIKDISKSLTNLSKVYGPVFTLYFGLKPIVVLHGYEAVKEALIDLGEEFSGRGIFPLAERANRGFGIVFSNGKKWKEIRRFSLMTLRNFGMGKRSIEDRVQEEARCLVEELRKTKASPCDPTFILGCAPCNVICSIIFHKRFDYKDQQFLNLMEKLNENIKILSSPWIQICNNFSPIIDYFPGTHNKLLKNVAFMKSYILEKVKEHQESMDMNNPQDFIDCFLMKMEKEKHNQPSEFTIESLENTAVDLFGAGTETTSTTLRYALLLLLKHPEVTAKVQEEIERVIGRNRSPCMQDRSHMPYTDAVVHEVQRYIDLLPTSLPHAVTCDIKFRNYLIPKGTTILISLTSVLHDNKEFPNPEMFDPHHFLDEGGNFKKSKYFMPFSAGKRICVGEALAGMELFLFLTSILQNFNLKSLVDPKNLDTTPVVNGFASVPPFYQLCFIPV

On to `CCCCNC(=S)Nc1nc2ccccc2s1` [Molecule 1, 1-(benzo[d]thiazol-2-yl)-3-butylthiourea], for which the IC50 in data set [1] was more than 20 µM; in data set [3], more than 20 µM; in data set [5], 4.6 µM; in data set [6], more than 20 µM; in data set [7] it was more than 100 µM; in data set [8], more than 20 µM. The compound further yielded a recovery at 4 h, 5 µM in data set [2] of 84.3%. Besides, the fraction unbound at 4 h, 5 µM in data set [2] (Mean plasma fraction Bound) and in data set [2] (setting [9]) was 0.001 in each case. The compound also displayed a half-life at 1 µM in data set [4] (pH 7.4) of 24 min. In addition, the “Percent remaining %REavg” value in data set [4] (microsomes, 5 min, 1 µM, pH 7.4) was 98.1%. Moreover, the microsomal CLint at 1 µM in data set [4] (microsomes, pH 7.4) was 96 µL/min/mg. The compound further registered a fraction remaining at 5 min, 1 µM in data set [4] (microsomes, pH 7.4, Percent remaining %REavg) of 96.6%.

Take `CCCCNC(=S)Nc1nc(C)co1` [Molecule 21, 1-butyl-3-(4-methyloxazol-2-yl)thiourea]: the IC50 is more than 20 µM in data set [1]; more than 20 µM in data set [3]; more than 20 µM in data set [5]; more than 20 µM in data set [6]; 6 ± 1 µM in data set [7]; more than 20 µM in data set [8]. The compound further displayed a recovery at 4 h, 5 µM in data set [2] of 83.9%. Further, the fraction unbound at 4 h, 5 µM in data set [2] (Mean plasma fraction Bound) and in data set [2] (setting [9]) was 0.037 throughout. The compound also had a half-life at 1 µM in data set [4] (pH 7.4) of 13 min. In addition, the microsomal CLint at 1 µM in data set [4] (microsomes, pH 7.4) turned out to be 179 µL/min/mg.
